Reference: PMC2923493 (Tetrahedron, 2010)
pIC50: −log10 of the molar value. Read-outs that look alike come from different tables or passages of the source.

How the values were obtained:
[1] = system: HT-29 human colon cancer cells; experiment: Cytotoxicity assay; assay type: cell-based; conditions: HT-29 cells, three days
[2] = molecular target: T1, chymotrypsin-like proteasome activity (Homo sapiens, UniProt P28074); experiment: Proteasome inhibition assay; assay type: biochemical
T1 sequence (P28074 60-263): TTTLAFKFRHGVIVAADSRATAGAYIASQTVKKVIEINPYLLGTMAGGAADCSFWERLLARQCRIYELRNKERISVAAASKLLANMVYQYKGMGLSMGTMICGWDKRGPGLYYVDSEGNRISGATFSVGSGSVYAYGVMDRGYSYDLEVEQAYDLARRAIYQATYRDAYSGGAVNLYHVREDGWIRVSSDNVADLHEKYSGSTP

[3] = system: LNCaP, HT-29, MCF-7 and MDA-MB 435 human cancer cells; experiment: In vivo hollow fiber assay; conditions: highest dose tested (20 mg/kg), mice, intraperitoneal, all cell lines
human SPC-A1 cell [4] = conditions: cited from earlier work
human SPC-A1 cell [5] = conditions: cited from earlier work; remark: listed apart in the source
[6] = read-out: Proteasome Inhibition IC50, Suc-LLVY-AMC 10 μM

Row | Molecule | Cytotoxicity ED50 [1] | pIC50 [2, 6] | further results
1 | CC1(C)Oc2c(cc3c(=O)c4c(O)cc(O)cc4oc3c2O)[C@H](O)[C@H]1O [Compound 2, (3R,4S)-3,4,7,9,12-pentahydroxy-2,2-dimethyl-3,4-dihydropyrano[3,2-b]xanthen-6(2H)-one] | >10 µM |  | 
2 | CO[C@H]1[C@H]2C(=O)c3c(O)c4c(c(CC=C(C)C)c3O[C@@]23[C@@H]2C[C@H]1C(=O)[C@]3(C/C=C(/C)C(=O)O)OC2(C)C)OC(C)(C)C=C4 [Compound 3, isomoreollic acid] | 1.9 µM | < 5.00 | 
3 | CC(C)=CCc1c(O)c(CC=C(C)C)c2c(c1O)C(=O)C1=C[C@H]3C[C@@H]4C(C)(C)O[C@@](C/C=C(/C)C(=O)O)(C3=O)[C@@]14O2 [Compound 4, isogaudichaudiic acid] | 3.2 µM | < 5.00 | 
4 | C=C(C)C(O)Cc1c2c(c(O)c3c1O[C@]14C(=C[C@H]5C[C@@H]1C(C)(C)O[C@@]4(C/C=C(\C)C(=O)O)C5=O)C3=O)C=CC(C)(C)O2 (some centres unmarked) [Compound 5, isogaudichaudiic acid E] | 2.6 µM | < 5.00 | 
5 | CC(C)=CCc1c2c(c(O)c3c1O[C@]14C(=C[C@H]5C[C@@H]1C(C)(C)O[C@@]4(C/C=C(/C)C(=O)O)C5=O)C3=O)CC(O)C(C)(C)O2 (stereo partly drawn) [Compound 6, (5R,7S,10aS,27S)-11,12-dihydro-12-hydroxymorellic acid] | 2.9 µM |  | 
6 | O=C1c2c(O)cc(O)cc2O[C@H](c2ccc(O)cc2)[C@H]1c1c(O)cc(O)c2c(=O)cc(-c3ccc(O)c(O)c3)oc12 [Compound 8, morelloflavone] | >10 µM |  | pIC50 [2]: 5.89
7 | O=C1c2c(O)cc(O)cc2O[C@@H](c2ccc(O)cc2)[C@@H]1c1c(O)cc(O)c2c(=O)cc(-c3ccc(O)cc3)oc12 [Compound 9, talbotaflavone] |  | 5.36 | 
8 | CC(C)=CCc1c2c(c(O)c3c1O[C@]14C(=C[C@@H]5C[C@H]1C(C)(C)O[C@@]4(C/C=C(/C)C(=O)O)C5=O)C3=O)C=CC(C)(C)O2 [Compound 10, morellic acid] | 0.36 µM | < 5.00 | Activity in in vivo hollow fiber assay [3]: inactive
9 | CC(C)=CCC[C@]1(C)C=Cc2c(O)c3c(c(CC=C(C)C)c2O1)O[C@]12C(=C[C@@H]4C[C@H]1C(C)(C)O[C@@]2(C/C=C(/C)C(=O)O)C4=O)C3=O [gambogic acid] |  |  | Inhibition of SPC-A1 cell growth in vitro (human SPC-A1 cell [4]): inhibited; Inhibition of SPC-A1 cell growth in vivo (human SPC-A1 cell [5]): inhibited
10 | isogaudichaudiic acid B [Compound 7] | >10 µM |  | 
